# Laboratory results reported in patent US20100093706A1, “MULTIMEDIATOR TRANSPORTER INHIBITORS FOR USE IN TREATMENT OF CENTRAL NERVOUS SYSTEM DISORDERS” (priority 2006, published 2010).
# Entries after “also recorded” stand apart in the source; their conditions may differ. Read-outs that look alike come from different tables or passages of the source.
# Assays:
# NET (h) = biological target: T1, NET (h) (Homo sapiens, UniProt P23975); assay: cell-based; type: cell-based; conditions: human; nM; read-out: NET (h) in vitro functional uptake
# T1 construct: expressed in transfected cells; host or cells: MDCK
# Description: (§1) Functional activity of the compounds was determined in vitro in cellular assays using recombinant human cell lines.
# DAT (h) = biological target: T2, DAT (h) (Homo sapiens, UniProt Q01959); assay: cell-based; type: cell-based
# T2 construct: expressed in transfected cells
# Description: as §1
# 5-HT (h) = biological target: T3, 5-HT (h) (Homo sapiens, UniProt P31645); assay: cell-based; type: cell-based; conditions: human; nM; read-out: 5-HT (h) in vitro functional uptake
# T3 construct: expressed in transfected cells; host or cells: HEK-293
# Description: as §1
# rat = assay: acute single-dose toxicology in rat; type: in vivo; conditions: rat (n = 5), i.v., observed 72 hours
# Description: An in vivo evaluation was carried out to determine the maximum tolerated dose of numerous test compounds in rat. The compounds were administered i.v., and the animals were then observed for 72 hours.
# Briefly, experimental rats, in groups of 5 animals, were administered with various doses of respective inhibitors (e.g. 30, 90, 120, and 200 mg/kg), and the observed toxicological effects were recorded.
# rats = assay: forced swim test (behavioral despair assay) in rats; type: in vivo; conditions: rat
# Description: In vivo efficacy of several illustrative inhibitors of the instant invention, (1), (3), and (4), were measured using standard forced swim test model using rat. The objective of this study was to assess the antidepressant effects of test compounds in the behavioral despair assay in rats using a modification of a method described by Porsolt R. D. et al. in Behavioural despair in rats: a new model sensitive to antidepressant treatment, Eur. J. Pharmacol., 47: 379-391, 1978; Porsolt et al., Nature 266: 730-732, 1977; and Porsolt et al., in Psychopharmacology, Olivier, Mos, and Slangen (eds) Birkhäuser Verlag, Basel, pp. 137-159, 1991. Briefly, when mice (or rats) are forced to swim in a cylinder from which no escape is possible, they readily adopt a characteristic immobile posture and make no further attempts to escape except for small movements needed to keep floating. The immobility is considered by some to reflect a “depressive mood” (Porsolt et al., Nature 266: 730-732, 1977) in which animals cease to struggle to escape the aversive situation. The immobility induced by the procedure is influenced by a wide variety of antidepressants (Porsolt et al., in Psychopharmacology, Olivier, Mos, and Slangen (eds) Birkhauser Verlag, Basel, pp. 137-159, 1991) and has a good predictive validity in that it detects antidepressants with different mechanisms of action (TCAs, SSRIs, MAOIs, and other atypical ones). The test is sensitive to muscle-relaxant (benzodiazepines) and sedative (neuroleptics) effects, leading to enhanced immobility (Porsolt et al., supra).
# In a typical experiment, animals are placed singly into a cylinder (e.g. 46×30 cm) containing fresh water at about 20° C. for 6 minutes. The activity (or immobility) of the animal is measured by an observer minute by minute. In more detail, the animals were preconditioned in a pretest session, where the rats were individually forced to swim inside a vertical plexiglass cylinder containing water maintained at 19-20° C. After 15 minutes in the water, they were allowed to dry for […] in a heated enclosure. Twenty-four hours later, the compounds were administered either intraperitoneally or orally to the animals. One hour after administration of the test compound, animals were put back into the cylinder containing water. The total duration of immobility was measured during the last 4 minutes of a 6 minute test.
# The results are expressed as the percentage of variation of the total duration of immobility calculated from the mean value of the vehicle-treated group (% variation=[(immobility duration of vehicle−immobility duration of test compound)/(immobility duration of vehicle)]×100%).
# In order to measure the in vivo efficacy of inhibiting DAT in rats using an inhibitor of the instant invention, one test inhibitor ((1), (3), or (4)) was injected i.p. as racemic mixtures of diastereomers into the animals, at various-doses (e.g. 7.5 and […]). Sibutramine (2.0 and 2.5 mg/kg), Bupropion (7.5 and 10 mg/kg), and Imipramine (30 mg/kg) were similarly administered as controls. […] Asterisks indicate highly statistical significant results.
# A fourth inhibitor, (6) was administered p.o. as a racemic mixture of diastereomers at either 35 or 75 mg/kg. Sibutramine (5.0 and 3.75 mg/kg), Bupropion (30 and 40 mg/kg), and Imipramine (100 mg/kg) were similarly administered as controls.
# Similarly, (1) was also administered p.o. as a racemic mixture of enriched (95:5) diastereomer at either 35 or 75 mg/kg. […]
# DAT (SLC6A3) = biological target: T4, DAT (SLC6A3) (Homo sapiens, UniProt Q01959); assay: in vitro inhibition profile, IC50 of DAT (uptake assay); type: cell-based
# T4 construct: expressed in transfected cells
# Description: Before the assay, cells expressing DAT are washed once with KRH and equilibrated for 5 min. The cells may be assayed in 24-well plates and incubated for 2-5 min. with tritiated amines. Nontransported inhibitors were preincubated for 5 min, and substrates were applied together with the tritiated substrate.
# Experiments to determine the ionic requirements for DAT-mediated uptake are done in KRH buffer, substituting LiCl or choline Cl for NaCl (sodium-dependence) or substituting D-gluconates for NaCl and KCl, and Ca(NO3)2 for CaCl2 (chloride dependence). Cells are washed twice with sodium- or chloride-free KRH before the assay (each wash step at least 5 min). In all transport assays, incubation periods and substrate concentrations are chosen such that uptake obeyed first-order rate kinetics.
# Vmax values for amine uptake in stable transfected DAT-cells are determined in parallel assays for at least two amines per experiment and expressed as relative values.
# 5-HT = 5-HT (Homo sapiens, UniProt P31645); assay: cell-based
# [1] = biological target: NET (norepinephrine transporter or SLC6A2) (Homo sapiens, UniProt P23975); assay: cell-based
# DAT (r) = DAT (r) (Rattus norvegicus, UniProt P23977); assay: in vitro functional uptake, rat DAT; type: cell-based; conditions: rat; unit inferred; read-out: DAT (r) in vitro functional uptake
# Sprague-Dawley rats = assay: 7 day multidose oral dosing toxicology study; type: in vivo, rat; conditions: for 7 day multidose oral toxicology, symptoms: Sprague-Dawley rats n = 6 (3M/3F)
# Source text: The representative results are listed below in Table VI.
# [2] = human, nM, read-out: DAT (h) in vitro functional uptake
# T1 sequence (P23975 whole entry): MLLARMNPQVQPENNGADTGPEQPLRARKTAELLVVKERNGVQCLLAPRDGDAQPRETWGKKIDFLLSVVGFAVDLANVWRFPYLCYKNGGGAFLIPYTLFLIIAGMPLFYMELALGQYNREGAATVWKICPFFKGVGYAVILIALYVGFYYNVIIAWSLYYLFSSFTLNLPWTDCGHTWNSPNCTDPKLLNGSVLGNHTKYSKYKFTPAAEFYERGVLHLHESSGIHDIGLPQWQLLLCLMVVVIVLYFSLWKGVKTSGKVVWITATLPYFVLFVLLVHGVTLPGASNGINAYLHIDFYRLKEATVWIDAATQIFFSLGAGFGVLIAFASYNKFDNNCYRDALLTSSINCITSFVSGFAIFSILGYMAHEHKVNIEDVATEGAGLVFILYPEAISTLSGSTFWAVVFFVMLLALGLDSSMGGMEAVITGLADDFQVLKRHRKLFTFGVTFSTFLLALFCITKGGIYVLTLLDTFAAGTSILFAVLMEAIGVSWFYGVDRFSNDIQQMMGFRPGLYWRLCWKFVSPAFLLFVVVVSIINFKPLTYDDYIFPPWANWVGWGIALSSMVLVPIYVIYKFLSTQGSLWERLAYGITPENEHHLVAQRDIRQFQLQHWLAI
# T2 sequence (Q01959 whole entry): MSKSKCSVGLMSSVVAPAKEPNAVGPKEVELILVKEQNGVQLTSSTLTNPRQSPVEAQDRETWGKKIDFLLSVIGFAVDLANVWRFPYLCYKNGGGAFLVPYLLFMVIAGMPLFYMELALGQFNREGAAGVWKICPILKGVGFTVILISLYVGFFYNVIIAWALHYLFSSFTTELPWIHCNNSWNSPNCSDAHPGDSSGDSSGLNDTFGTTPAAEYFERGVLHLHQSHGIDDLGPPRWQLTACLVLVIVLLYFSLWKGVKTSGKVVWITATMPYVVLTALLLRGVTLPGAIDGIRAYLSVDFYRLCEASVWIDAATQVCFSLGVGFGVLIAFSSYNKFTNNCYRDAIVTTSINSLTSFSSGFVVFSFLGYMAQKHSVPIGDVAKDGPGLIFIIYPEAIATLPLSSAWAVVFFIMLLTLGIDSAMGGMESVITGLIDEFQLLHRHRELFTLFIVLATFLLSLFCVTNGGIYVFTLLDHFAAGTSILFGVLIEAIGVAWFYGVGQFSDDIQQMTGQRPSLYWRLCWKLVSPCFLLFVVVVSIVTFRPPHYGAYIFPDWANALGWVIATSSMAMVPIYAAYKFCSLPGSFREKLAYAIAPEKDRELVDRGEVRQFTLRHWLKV
# T3 sequence (P31645 whole entry): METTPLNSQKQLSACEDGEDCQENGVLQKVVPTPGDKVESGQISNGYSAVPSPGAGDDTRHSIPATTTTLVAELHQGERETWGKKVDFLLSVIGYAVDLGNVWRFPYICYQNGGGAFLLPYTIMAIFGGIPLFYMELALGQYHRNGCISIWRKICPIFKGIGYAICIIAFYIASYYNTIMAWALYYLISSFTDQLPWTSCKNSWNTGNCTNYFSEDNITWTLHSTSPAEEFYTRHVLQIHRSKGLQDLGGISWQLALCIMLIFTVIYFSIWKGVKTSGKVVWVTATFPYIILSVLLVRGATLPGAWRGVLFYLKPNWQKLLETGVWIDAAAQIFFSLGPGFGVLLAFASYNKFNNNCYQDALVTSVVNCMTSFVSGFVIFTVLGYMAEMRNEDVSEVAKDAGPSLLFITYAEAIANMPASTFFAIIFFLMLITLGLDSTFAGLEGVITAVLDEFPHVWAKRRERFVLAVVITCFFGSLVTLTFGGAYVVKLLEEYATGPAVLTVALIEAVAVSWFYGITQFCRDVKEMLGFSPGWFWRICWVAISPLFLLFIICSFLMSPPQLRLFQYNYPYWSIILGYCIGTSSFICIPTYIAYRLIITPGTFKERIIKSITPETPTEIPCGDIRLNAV
# T4 sequence (Q01959 whole entry): as the sequence (Q01959 whole entry) above
# DAT (r), sequence (P23977 whole entry): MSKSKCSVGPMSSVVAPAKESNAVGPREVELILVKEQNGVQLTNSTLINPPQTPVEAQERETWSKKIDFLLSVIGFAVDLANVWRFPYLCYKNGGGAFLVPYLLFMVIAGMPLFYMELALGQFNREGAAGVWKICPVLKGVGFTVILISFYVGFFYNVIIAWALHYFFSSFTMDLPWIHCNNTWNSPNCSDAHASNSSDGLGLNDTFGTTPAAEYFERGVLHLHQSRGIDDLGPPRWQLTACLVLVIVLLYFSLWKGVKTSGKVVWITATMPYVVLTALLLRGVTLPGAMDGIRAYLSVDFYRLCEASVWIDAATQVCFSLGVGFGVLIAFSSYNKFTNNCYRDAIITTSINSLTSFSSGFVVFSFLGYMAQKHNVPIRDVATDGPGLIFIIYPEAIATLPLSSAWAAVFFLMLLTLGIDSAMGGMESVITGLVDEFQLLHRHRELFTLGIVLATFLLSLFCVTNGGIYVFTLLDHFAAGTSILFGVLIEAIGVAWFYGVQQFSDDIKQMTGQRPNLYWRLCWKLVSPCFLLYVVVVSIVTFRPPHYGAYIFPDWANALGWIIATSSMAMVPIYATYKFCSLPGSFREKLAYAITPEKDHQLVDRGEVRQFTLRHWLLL
# NET (norepinephrine transporter or SLC6A2), sequence (P23975 whole entry): as the sequence (P23975 whole entry) above
# 5-HT, sequence (P31645 whole entry): as the sequence (P31645 whole entry) above
SMILES,EC50 (NET (h)) [nM],EC50 (DAT (h); [2]) [nM],EC50 (5-HT (h)) [nM],also measured
C[C@@H]1[C@H](COc2ccc(C(F)(F)F)cc2)CCCN1CC(O)C1(c2ccc(Cl)cc2)CCC1 (stereo partly shown) [(6′)],3,3,–,–
"C[C@@H]1CC[C@H](COc2ccc(C(F)(F)F)cc2)CN1C[C@H](O)C1(c2ccc(Cl)cc2)CCC1 [(19), (R)-1-[1-(4-Chlorophenyl)cyclobutyl]-2-{(2R,5S)-2-methyl-5-[4-(trifluoromethyl)phenoxy]methyl}piperidin-1-ylethanol]",9,1,> 2000,–
"C[C@H]1CCN(CC2(c3ccc(Cl)cc3)CCC2)C[C@H]1COc1ccc(C(F)(F)F)cc1 [(16), (3S,4S)-1-{[1-(4-Chlorophenyl)cyclobutyl]methyl}-4-methyl-3-{[4-(trifluoromethyl)phenoxy]methyl}piperidine]",100,< 1,> 2000,–
"C[C@H]1CCN(CC2(c3ccc(Cl)cc3)CCC2)C[C@@H]1COc1ccc(C(F)(F)F)cc1 [(14), (3R,4S)-1-{[1-(4-Chlorophenyl)cyclobutyl]methyl}-4-methyl-3-{[4-(trifluoromethyl)phenoxy]methyl}piperidine]",150,< 1,> 2000,–
"C[C@@H]1CC[C@@H](COc2ccc(C(F)(F)F)cc2)CN1C[C@@H](O)C1(c2ccc(Cl)cc2)CCC1 [(21), (S)-1-[1-(4-Chlorophenyl)cyclobutyl]-2-{(2R,5R)-2-methyl-5-[4-(trifluoromethyl)phenoxy]methyl}-piperidin-1-ylethanol]",5,1,10,–
CC1C(COc2ccc(C(F)(F)F)cc2)CCCN1CC(O)C1(c2ccc(Cl)cc2)CCC1 (stereo not shown) [(6)],–,–,–,"acute single dose toxicology, observed symptoms (rat; 200 mg/kg): no observed symptoms; forced swim test efficacy versus commercial drugs (FIG. 2, FIG. 3) (rats; p.o., 35 or 75 mg/kg): performed equally well, if not better, than the commercial drugs Sibutramine, Bupropion, and Imipramine"
"C[C@@H]1CC[C@H](COc2ccc(C(F)(F)F)cc2)CN1C[C@@H](O)C1(c2ccc(Cl)cc2)CCC1 [(20), (S)-1-[1-(4-Chlorophenyl)cyclobutyl]-2-{(2R,5S)-2-methyl-5-[4-(trifluoromethyl)phenoxy]methyl}piperidin-1-ylethanol]",2,1,20,–
CC1C(COc2ccc(C(F)(F)F)cc2)CCCN1CC1(c2ccc(Cl)cc2)CCC1 (stereo not shown) [(5)],–,–,–,"IC50 (DAT (SLC6A3)): 5 nM; fold selectivity of DAT against related receptors (NET, 5-HT) (DAT (SLC6A3); from Table II IC50): 174-2,000 fold; IC50 (5-HT): 10000 nM; IC50 [1]: 870 nM; EC50 (DAT (h)): 5 nM; selectivity for DAT over 5-HT (DAT (h)): 1000 fold; selectivity for DAT over NET (DAT (h)): 1000 fold; EC50 (DAT (r)): 300 nM"
"CN[C@H](CC(C)C)C1(c2ccc(Cl)cc2)CCC1 [R-DMS, reference compound]",300,30,1500,–
CC1CCC(COc2ccc(C(F)(F)F)cc2)CN1CC(O)C1(c2ccc(Cl)cc2)CCC1 (stereo not shown) [(4)],–,–,–,"acute single dose toxicology, observed symptoms (rat; 120 mg/kg): decreased grip strength and limb tone and convulsions; acute single dose toxicology, observed symptoms (rat; 200 mg/kg): Convulsions; forced swim test efficacy versus commercial drugs (FIG. 1) (rats; i.p., racemic mixtures of diastereomers): performed equally well, if not better, than the commercial drugs Sibutramine, Bupropion, and Imipramine"
"C[C@H]1CC[C@@H](COc2ccc(C(F)(F)F)cc2)CN1C[C@@H](O)C1(c2ccc(Cl)cc2)CCC1 [(17), (S)-1-[1-(4-Chlorophenyl)cyclobutyl]-2-{(2S,5R)-2-methyl-5-[4-(trifluoromethyl)phenoxy]methyl}piperidin-1-ylethanol]",5,1,> 2000,–
"C[C@H]1CC[C@@H](COc2ccc(C(F)(F)F)cc2)CN1CC1(c2ccc(Cl)cc2)CCC1 [(13), (2S,5R)-1-{[1-(4-Chlorophenyl)cyclobutyl]methyl}-2-methyl-5-{[4-(trifluoromethyl)phenoxy]methyl}piperidine]",100,< 1,> 2000,–
"C[C@H]1CC[C@@H](COc2ccc(C(F)(F)F)cc2)CN1C[C@H](O)C1(c2ccc(Cl)cc2)CCC1 [(18), (R)-1-[1-(4-Chlorophenyl)cyclobutyl]-2-{(2S,5R)-2-methyl-5-[4-(trifluoromethyl)phenoxy]methyl}piperidin-1-ylethanol]",2,1,> 2000,–
"CC(C)C[C@@H](N)C1(c2ccc(Cl)cc2)CCC1 [R-DDMS, reference compound]",200,100,1500,–
CC(C)CC(N(C)C)C1(c2ccc(Cl)cc2)CCC1 (stereo not shown) [Sibutramine],–,–,–,"7 day multidose oral toxicology, symptoms (Sprague-Dawley rats; oral 100 mg/kg/day, 100 mg/kg/day): decreased grip strength, depression; 7 day multidose oral toxicology, symptoms (Sprague-Dawley rats; oral 400 mg/kg/day, 400 mg/kg/day): convulsions; also recorded: Convulsions;; 7 day multidose oral toxicology, deaths (Sprague-Dawley rats; n = 6, oral 200 mg/kg/day): 2 deaths; 7 day multidose oral toxicology, self-mutilation (number of animals) (Sprague-Dawley rats; n = 6, oral 200 mg/kg/day): 6 self-mutilation"
"C[C@@H]1CCN(CC2(c3ccc(Cl)cc3)CCC2)C[C@H]1COc1ccc(C(F)(F)F)cc1 [(15), (3S,4R)-1-{[1-(4-Chlorophenyl)cyclobutyl]methyl}-4-methyl-3-{[4-(trifluoromethyl)phenoxy]methyl}piperidine]",350,< 1,> 2000,–
